Experimental data: EP4722195A1, “PH-SENSITIVE CATIONIC LIPID AND LIPID NANOPARTICLES” (National University Corporation Hokkaido University, priority 2023, dated 2024)

Experiments:
[1] = Apparent pKa of lipid nanoparticles (TNS)
Procedure: The apparent pKa of the lipid nanoparticles was measured using p-toluenesulfonic acid (TNS). First, TNS (final concentration: 0.75 µM) and lipid nanoparticles (final concentration: 30 µM) were mixed in a buffer (200 mL) adjusted to each pH (pH 3.5 to 9.5). As the buffer, 20 mM citrate buffer, 20 mM sodium phosphate buffer, or 20 mM Tris-HCl buffer containing 130 mM NaCl was used. The fluorescence intensity of the prepared mixture was measured using a fluorescence spectrophotometer (Varioskan Lux, manufactured by Thermo Fisher Scientific) with the settings of λex=321 nm and λem=447 nm. Among the measured values, the highest value and the lowest value were set as 100% and 0% ionization degrees, respectively, and the pH showing a 50% ionization degree was calculated as the apparent pKa. The content ratio (%) of cationically charged pH-sensitive cationic lipid was calculated using the Henderson-Hasselbalch equation.

[2] = Average particle size and polydispersity index of lipid nanoparticles (dynamic light scattering); format: physicochemical
Procedure: (§1) The average particle size (number average value), ζ-average particle size, and polydispersity index (PdI) of the lipid nanoparticles in PBS(-) (pH 7.4), and the zeta potential in 10 mM HEPES buffer (pH 7.4) were measured using an analyzer "Zetasizer Nano ZS ZEN3600" (manufactured by Malvern) utilizing dynamic light scattering.

[3] = Encapsulation rate of lipid nanoparticles (Ribogreen); format: physicochemical
Procedure: The encapsulation rate of the lipid nanoparticles was determined by measuring the amount of encapsulated nucleic acid (mRNA) using Ribogreen (manufactured by Life Technologies), which is an RNA intercalator. The mRNA amount was quantified based on a calibration curve prepared from a series of diluted mRNA solutions at known concentrations.
Specifically, 10 mM HEPES buffer (pH 7.4), 10 w/v% Triton X-100, and Ribogreen were mixed at 978.8 µL, 20 µL, and 1.25 µL per 10 wells, respectively, to obtain a Triton(+) buffer. A Triton(-) buffer was obtained in replacing Triton X-100 with 10 mM HEPES buffer (pH 7.4). 100 µL/well of the sample was added to a black 96-well plate for fluorescence measurement, and 100 µL/well of Triton(+) buffer or Triton(-) buffer was added. After the plate was gently shaken on a shaking incubator (SI-300, manufactured by AS ONE) (700 rpm, 30 seconds), the fluorescence intensity of each well was measured using a microplate reader (VARIOSKAN LUX, manufactured by Thermo Fisher Scientific) (wavelength Ex/Em=500 nm/525 nm), and the nucleic acid encapsulation rate (%) was calculated.

liver = test: EGFP expression in liver tissue sections of mice administered EGFP mRNA-loaded lipid nanoparticles (confocal microscopy); format: in vivo, Balb/c mice; conditions: Example 27, Fig. 6; EGFP mRNA-loaded lipid nanoparticles TxT/DSPC/chol/PEG-DMG=50/3/47/1.5 (mol%); 24 hours post-administration
Procedure: Subsequently, each EGFP mRNA-loaded lipid nanoparticle was administered to Balb/c mice at a dose of 0.2 mg mRNA/kg. At 23 hours and 50 minutes post-administration, fluorescently labeled lectin (DyLight-649 Lycopersicon (Tomato) Lectin) was intravenously injected via the tail vein at 40 µg/mouse to fluorescently label vascular endothelial cells. At 24 hours after administration of the lipid nanoparticles, the mice were euthanized, and their livers were collected to prepare tissue sections. For nuclear staining, the tissue sections were immersed in a nuclear staining solution (1 µg/mL Hoechst 33342 dissolved in PBS(-)), cooled on ice, and incubated for at least 30 minutes in the dark. The stained tissue sections were then observed using a confocal laser scanning microscope. Subsequently, in the same manner as Example 26, each EGFP mRNA-loaded lipid nanoparticle was administered to Balb/c mice. At 23 hours and 50 minutes post-administration, fluorescently labeled lectin was administered. At 24 hours after administration of the lipid nanoparticles, the mice were euthanized, and their livers were collected to prepare tissue sections. Each tissue section was observed using a confocal laser scanning microscope. In the figure, the upper panels show fluorescence images of EGFP, and the lower panels show fluorescence images of vascular endothelial cells (fluorescently labeled lectin).

[4] = Zeta potential of lipid nanoparticles; format: physicochemical
Procedure: as §1

[5] = Table 1, apparent pKa of Fluc mRNA-loaded lipid nanoparticles, TxT/DSPC/chol/PEG-DMG=50/15/35/1.5 (mol%)
[6] = Table 3, Fluc mRNA-loaded lipid nanoparticles, TxT/DSPC/chol/PEG-DMG=50/3/47/1.5 (mol%)
[7] = Table 1, Fluc mRNA-loaded lipid nanoparticles, TxT/DSPC/chol/PEG-DMG=50/15/35/1.5 (mol%)
[8] = Table 5, EGFP mRNA-loaded lipid nanoparticles, TxT/DSPC/chol/PEG-DMG=50/3/47/1.5 (mol%), total flow rate 3.0 mL/min
[9] = Table 6 (Example 28), Fluc mRNA-loaded lipid nanoparticles, TxT/DSPC/chol/PEG-DMG=50/3/47/1.5 (mol%)
[10] = Table 7, hEPO mRNA-loaded lipid nanoparticles, TxT/DSPC/chol/PEG-DMG=50/3/47/1.5, SM-102/DSPC/chol/PEG-DMG=50/10/40/1.5 (mol%)
[11] = Table 8 (Example 32), lipid nanoparticles for TTR-targeted genome editing, Cas9-mRNA and TTR-gRNA 1:2 (N/P = 6.0), TxT/DSPC/chol/PEG-DMG = 50/3/47/1.5 (mol%)
[12] = Table 2, Fluc mRNA-loaded lipid nanoparticles, TxT-5-5A16/DSPC/chol/PEG-DMG=50/X/50-X/1.5 (mol%), DSPC concentration 3 mol %
[13] = Table 2, Fluc mRNA-loaded lipid nanoparticles, TxT-5-5A16/DSPC/chol/PEG-DMG=50/X/50-X/1.5 (mol%), DSPC concentration 6 mol %
[14] = Table 2, Fluc mRNA-loaded lipid nanoparticles, TxT-5-5A16/DSPC/chol/PEG-DMG=50/X/50-X/1.5 (mol%), DSPC concentration 9 mol %
[15] = Table 2, Fluc mRNA-loaded lipid nanoparticles, TxT-5-5A16/DSPC/chol/PEG-DMG=50/X/50-X/1.5 (mol%), DSPC concentration 12 mol %
[16] = Table 2, Fluc mRNA-loaded lipid nanoparticles, TxT-5-5A16/DSPC/chol/PEG-DMG=50/X/50-X/1.5 (mol%), DSPC concentration 15 mol %

SMILES: CCCCCCC(CCCC)CNC(=O)CCCC(=O)OCC(COC(=O)CCCC(=O)NCC(CCCC)CCCCCC)(COC(=O)CCCC(=O)NCC(CCCC)CCCCCC)NC(=O)CCN1CCCCC1 (stereo not drawn) [TxT-5-5A12β, 2-(((5-((2-butyloctyl)amino)-5-oxopentanoyl)oxy)methyl)-2-(3-(piperidin-1-yl)propanamido)propane-1,3-diyl bis(5-((2-butyloctyl)amino)-5-oxopentanoate)]
- pKa [1, 5]: 4.90
- pKa [1, 6]: 6.53
- average particle diameter, comparison among TxT lipids ([2]; Example 32, Table 8, lipid nanoparticles for TTR-targeted genome editing): largest
- Pdl [2, 7]: 0.08
- number average particle size [2, 7]: 82.8 nm
- ζ-average particle size [2, 7]: 111.9 nm
- Pdl [2, 6]: 0.08
- number average particle size [2, 6]: 72.8 nm
- ζ-average particle size [2, 6]: 96.0 nm
- Pdl [2, 8]: 0.05
- number average particle size [2, 8]: 81.9 nm
- ζ-average particle size [2, 8]: 104.0 nm
- Pdl [2, 9]: 0.06
- number average particle size [2, 9]: 71.2 nm
- ζ-average particle size [2, 9]: 92.0 nm
- Pdl [2, 10]: 0.10
- number average particle size [2, 10]: 66.9 nm
- ζ-average particle size [2, 10]: 88.9 nm
- Pdl [2, 11]: 0.02
- number average particle size [2, 11]: 71.3 nm
- ζ-average particle size [2, 11]: 87.8 nm
- mRNA concentration [3, 7]: 0.024 µg/µL
- mRNA encapsulation rate [3, 7]: 97.0%
- mRNA concentration [3, 6]: 0.023 µg/µL
- mRNA encapsulation rate [3, 6]: 99.5%
- mRNA concentration [3, 8]: 0.016 µg/µL
- mRNA encapsulation rate [3, 8]: 99.1%
- mRNA concentration [3, 9]: 0.020 µg/µL
- mRNA encapsulation rate [3, 9]: 98.0%
- mRNA concentration [3, 10]: 0.017 µg/µL
- mRNA encapsulation rate [3, 10]: 99.5%
- mRNA concentration [3, 11]: 0.412 µg/µL
- mRNA encapsulation rate [3, 11]: 99.1%
- fluorescence of EGFP in the liver tissues (liver): fluorescence of EGFP was observed
- gene expression in hepatocytes (liver): notably high levels of gene expression
- ζ-potential [4, 7]: -6.0 mV
- ζ-potential [4, 6]: -5.6 mV
- ζ-potential [4, 8]: -7.8 mV
- ζ-potential [4, 9]: -8.4 mV
- ζ-potential [4, 10]: -3.0 mV
- ζ-potential [4, 11]: -3.8 mV

SMILES: CCCCCCCCN(CCCCCCCC)C(=O)CCCC(=O)OCC(COC(=O)CCCC(=O)N(CCCCCCCC)CCCCCCCC)(COC(=O)CCCC(=O)N(CCCCCCCC)CCCCCCCC)NC(=O)CCN1CCCCC1 [TxT-5-5A16, 2-(((5-(dioctylamino)-5-oxopentanoyl)oxy)methyl)-2-(3-(piperidin-1-yl)propanamido)propane-1,3-diyl bis(5-(dioctylamino)-5-oxopentanoate)]
- pKa [1, 5]: 6.27
- pKa [1, 12]: 6.28
- pKa [1, 13]: 5.88
- pKa [1, 14]: 5.41
- pKa [1, 15]: 6.24
- pKa [1, 16]: 6.36
- pKa [1, 6]: 6.28
- Pdl [2, 7]: 0.11
- number average particle size [2, 7]: 61.0 nm
- ζ-average particle size [2, 7]: 85.6 nm
- Pdl [2, 12]: 0.0
- number average particle size [2, 12]: 93.3 nm
- ζ-average particle size [2, 12]: 114.0 nm
- Pdl [2, 13]: 0.04
- number average particle size [2, 13]: 78.6 nm
- ζ-average particle size [2, 13]: 96.8 nm
- Pdl [2, 14]: 0.08
- number average particle size [2, 14]: 66.3 nm
- ζ-average particle size [2, 14]: 90.2 nm
- Pdl [2, 15]: 0.07
- number average particle size [2, 15]: 64.4 nm
- ζ-average particle size [2, 15]: 85.1 nm
- Pdl [2, 16]: 0.14
- number average particle size [2, 16]: 60.8 nm
- ζ-average particle size [2, 16]: 88.3 nm
- Pdl [2, 6]: 0.03
- number average particle size [2, 6]: 93.3 nm
- ζ-average particle size [2, 6]: 114.0 nm
- Pdl [2, 8]: 0.04
- number average particle size [2, 8]: 112.5 nm
- ζ-average particle size [2, 8]: 132.4 nm
- mRNA concentration [3, 7]: 0.020 µg/µL
- mRNA encapsulation rate [3, 7]: 96.7%
- mRNA concentration [3, 12]: 0.023 µg/µL
- mRNA encapsulation rate [3, 12]: 98.8%
- mRNA concentration [3, 13]: 0.024 µg/µL
- mRNA encapsulation rate [3, 13]: 98.9%
- mRNA concentration [3, 14]: 0.024 µg/µL
- mRNA encapsulation rate [3, 14]: 98.3%
- mRNA concentration [3, 15]: 0.024 µg/µL
- mRNA encapsulation rate [3, 15]: 97.0%
- mRNA concentration [3, 16]: 0.020 µg/µL
- mRNA encapsulation rate [3, 16]: 95.6%
- mRNA concentration [3, 6]: 0.023 µg/µL
- mRNA encapsulation rate [3, 6]: 98.8%
- mRNA concentration [3, 8]: 0.022 µg/µL
- mRNA encapsulation rate [3, 8]: 99.2%
- fluorescence of EGFP in the liver tissues (liver): not detectable
- ζ-potential [4, 7]: -3.3 mV
- ζ-potential [4, 12]: -2.7 mV
- ζ-potential [4, 13]: -2.4 mV
- ζ-potential [4, 14]: -2.2 mV
- ζ-potential [4, 15]: -1.9 mV
- ζ-potential [4, 16]: -4.1 mV
- ζ-potential [4, 6]: -2.7 mV
- ζ-potential [4, 8]: -8.4 mV
